From ChEMBL document CHEMBL1139085, “Synthesis and biological evaluation of fenobam analogs as mGlu5 receptor antagonists” (Bioorg Med Chem Lett, 2007) come the findings set out here.

By IC50 is commonly meant the concentration that inhibits the measured activity by half. The low end stands for inhibition by little substance, the high end for a need for much substance. The term microsomal CLint denotes the rate of metabolic loss divided by the concentration.

Structures are written as SMILES. Activity calls are given as the source filed them. The calls are words filed in the database; no cut-off is given here.

In data set [1] the target is T1, Metabotropic glutamate receptor 5 (Homo sapiens, UniProt P41594). The data set is described as follows: Displacement of [3H]MPEP from mGlu5 receptor.
T1 sequence (P41594 whole entry): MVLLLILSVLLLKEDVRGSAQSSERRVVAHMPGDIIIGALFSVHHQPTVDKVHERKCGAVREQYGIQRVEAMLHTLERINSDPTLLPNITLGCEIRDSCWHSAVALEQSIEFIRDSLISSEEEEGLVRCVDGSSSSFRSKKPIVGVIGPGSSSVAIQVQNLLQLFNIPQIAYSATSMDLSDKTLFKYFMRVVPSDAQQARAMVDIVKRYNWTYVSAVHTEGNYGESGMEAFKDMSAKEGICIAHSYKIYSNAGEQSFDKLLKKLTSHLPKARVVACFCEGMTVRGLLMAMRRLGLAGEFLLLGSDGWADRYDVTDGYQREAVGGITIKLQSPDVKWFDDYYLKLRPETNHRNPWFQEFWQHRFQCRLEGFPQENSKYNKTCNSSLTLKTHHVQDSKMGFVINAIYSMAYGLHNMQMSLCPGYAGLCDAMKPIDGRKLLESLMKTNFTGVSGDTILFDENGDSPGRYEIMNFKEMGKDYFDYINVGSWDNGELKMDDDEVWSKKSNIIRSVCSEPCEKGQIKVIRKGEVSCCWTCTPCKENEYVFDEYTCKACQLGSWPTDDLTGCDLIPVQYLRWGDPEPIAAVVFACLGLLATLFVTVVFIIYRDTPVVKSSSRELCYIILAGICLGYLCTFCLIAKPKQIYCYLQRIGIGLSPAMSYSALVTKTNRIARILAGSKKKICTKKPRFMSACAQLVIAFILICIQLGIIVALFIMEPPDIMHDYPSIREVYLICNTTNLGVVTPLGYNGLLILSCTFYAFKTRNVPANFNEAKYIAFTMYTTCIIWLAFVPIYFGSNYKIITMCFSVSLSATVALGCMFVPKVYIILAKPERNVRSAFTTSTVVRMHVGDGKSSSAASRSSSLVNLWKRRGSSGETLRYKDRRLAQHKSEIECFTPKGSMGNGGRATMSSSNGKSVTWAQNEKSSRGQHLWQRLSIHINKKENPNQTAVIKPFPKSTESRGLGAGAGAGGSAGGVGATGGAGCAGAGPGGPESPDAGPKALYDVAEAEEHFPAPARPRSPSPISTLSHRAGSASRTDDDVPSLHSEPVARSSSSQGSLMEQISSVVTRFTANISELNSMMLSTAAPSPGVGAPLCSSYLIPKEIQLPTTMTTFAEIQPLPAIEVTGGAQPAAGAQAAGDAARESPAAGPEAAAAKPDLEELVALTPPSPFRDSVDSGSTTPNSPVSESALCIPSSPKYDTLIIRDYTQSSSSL
The target of data set [2] is T1, Metabotropic glutamate receptor 5. Description: Antagonist activity at mGluR5 by FLIPR. Type of data set: functional.
Data set [3] is described as follows: Metabolic stability in rat liver microsomes. It is filed as ADME, Microsome.
Data set [4] can be described thus: Metabolic stability in human liver microsomes. Type of data set: ADME, Microsome. Background: Microsomes from liver hold many membrane-bound enzymes, among them those of drug oxidation.
In data set [5] the test system is Rattus norvegicus. Description: Anxiolytic-like activity in rat assessed as increase in drinking time at 30 mg/kg, po by Vogel conflict test. Type of data set: functional, organism-based. Further details: dose 30 mg/kg.
For data set [6], the species on record is Rattus norvegicus. Description: Anxiolytic-like activity in rat assessed as reversal of foot shock-induced suppression of lever pressing by conditioned emotional response test. Type of data set: functional, organism-based.
Data set [7] concerns Rattus norvegicus. The data set is described as follows: Anxiolytic-like activity in rat assessed as behavioral disruption at 3 to 30 mg/kg, po by conditioned emotional response test. Type of data set: functional, organism-based.
For data set [8], the species on record is Rattus norvegicus. The data set is described as follows: Anxiolytic-like activity in rat assessed as reversal of foot shock-induced suppression of lever pressing by conflict test. It is filed as functional, organism-based.
Data set [9] deals with Rattus norvegicus. Description: Anxiolytic-like activity in rat assessed as behavioral disruption at 3 to 30 mg/kg, po by conflict test. Type of data set: functional, organism-based.

On to `Cc1cccc(C#Cc2cccc(Cl)c2)n1`, for which the values for the IC50 in [1] and in data set [2] were 3 nM and 7 nM, respectively.
Regarding `CN1CC(=O)N/C1=N\C(=O)Nc1csc(Cl)c1`, the results for the IC50 in data set [1] and in [2] were 78 nM and 434 nM, respectively. Also, the microsomal CLint was found to be 27 µL/min/mg in data set [3] and 55 µL/min/mg in [4]. Further, the result with Rattus norvegicus [5] was Active. Besides, the Activity entry in the data set listed under Rattus norvegicus [6] and in the data set filed under Rattus norvegicus [8] was “Dose-dependent effect” throughout. For the same compound, the outcome in the data set with Rattus norvegicus [7] and in the data set on Rattus norvegicus [9] was inactive.
For `CN1CC(=O)N/C1=N\C(=O)Nc1ccccn1`, the IC50 worked out at 587 nM in data set [1] and 1100 nM in [2]. Moreover, the microsomal CLint in [3] was determined as 22 µL/min/mg; in data set [4], 47 µL/min/mg.
For the compound `CN1CC(=O)N/C1=N\C(=O)Nc1ccccc1`, the IC50 is 1360 nM in data set [1] and 3300 nM in [2].
For the compound `CN1CC(=O)N=C1NC(=O)Nc1cccc(Cl)c1` [FENOBAM ANHYDROUS], the IC50 in data set [1] stood at 61 nM; in data set [2] it was 38 nM. Besides, the microsomal CLint was found to be 44 µL/min/mg in data set [3] and 100 µL/min/mg in [4].
Turning to `CN1CC(=O)N/C1=N\C(=O)Nc1ccncc1`, the IC50 is 1120 nM in data set [1] and above 5000 nM in data set [2]. Besides, the microsomal CLint in data set [3] stood at 9 µL/min/mg; in data set [4], 11 µL/min/mg.
For the compound `Cc1cccc(C#Cc2cccnc2)n1`, the IC50 in data set [1] amounted to 10 nM; in [2], 66 nM.
On the same counts, the results for `CN1CC(=O)N/C1=N\C(=O)Nc1ccsc1` are 700 nM and 4020 nM.
For `Cc1cccc(C#Cc2ccccc2Cl)n1`, the results for the IC50 in [1] and in data set [2] were 5 nM and 15 nM, respectively.
Take `Cc1cccc(C#Cc2ccccn2)n1`: the IC50 in [1] is 39 nM; in [2], 400 nM.
For the compound `CN1CC(=O)N/C1=N\C(=O)Nc1cccnc1`, the IC50 in [1] and in [2] was above 5000 nM throughout. The microsomal CLint was found to be 5 µL/min/mg in data set [3] and 20 µL/min/mg in [4].
On to `Cc1cccc(C#Cc2ccncc2)n1`, for which the IC50 in data set [1] was 26 nM; in data set [2], 213 nM.
For `CN1CC(=O)N/C1=N\C(=O)Nc1ccccc1Cl`, in that order: 2520 nM and 6800 nM.
`Cc1cccc(C#Cc2ccc(Cl)cc2)n1`: the IC50 was 286 nM in data set [1] and 1020 nM in [2].
For `CN1CC(=O)N/C1=N\C(=O)Nc1ccc(Cl)cc1`, in that order: above 5000 nM and above 5000 nM.
